According to ChEMBL document CHEMBL1127891, “Benzopyran potassium channel activators related to cromakalim - heterocyclic amide replacements at position 4” (1994):

Experiments:
Format in all cases: functional
[1] = system: Rattus norvegicus; assay: Tested for antihypertensive activity expressed as max fall in BP in spontaneously hypertensive rats (SHR), at the dose of 0.3 mg/kg
[2] = system: Rattus norvegicus; assay: Tested for antihypertensive activity expressed as max fall in BP in spontaneously hypertensive rats (SHR), at the dose of 0.1 mg/kg
[3] = system: Rattus norvegicus; assay: Tested for antihypertensive activity expressed as max fall in BP in spontaneously hypertensive rats (SHR), at the dose of 1 mg/kg
[4] = system: Rattus norvegicus; assay: Tested for antihypertensive activity expressed as max fall in BP in spontaneously hypertensive rats (SHR), at the dose of 10.0 mg/kg
[5] = system: Rattus norvegicus; assay: Tested for antihypertensive activity expressed as max fall in BP in spontaneously hypertensive rats (SHR), at the dose of 3.0 mg/kg

Row | Structure (SMILES) | Max fall in blood pressure [1] | Max fall in blood pressure [3] | Max fall in blood pressure [5] | further results
1 | Cn1nc(N)nc1N[C@@H]1c2cc(C#N)ccc2OC(C)(C)[C@H]1O | 56 |  |  | Max fall in blood pressure [2]: 30
2 | Cn1ncnc1N[C@@H]1c2cc(C#N)ccc2OC(C)(C)[C@H]1O | 22 | 35 |  | 
3 | Cn1nc(N[C@@H]2c3cc(C#N)ccc3OC(C)(C)[C@H]2O)nc1N |  |  |  | Max fall in blood pressure [4]: 33
4 | Cc1nc(N[C@@H]2c3cc(C#N)ccc3OC(C)(C)[C@H]2O)n(C)n1 |  | 22 | 37 | 
5 | CC1(C)Oc2ccc(C#N)cc2[C@@H](Nc2n[s+]([O-])nc2N)[C@@H]1O (some centres not stated) |  |  | 20 | 
6 | CC1(C)Oc2ccc(C#N)cc2[C@@H](Nc2n[nH]c(N)n2)[C@@H]1O |  |  | 19 | 
7 | C/N=C(\NC#N)N[C@@H]1c2cc(C#N)ccc2OC(C)(C)[C@H]1O | 16 | 41 |  | 
8 | CC1(C)Oc2ccc(C#N)cc2[C@@H](Nc2nc(N)no2)[C@@H]1O |  | 16 | 32 | 
9 | Cc1noc(N[C@@H]2c3cc(C#N)ccc3OC(C)(C)[C@H]2O)n1 |  |  | 31 | 
10 | CC1(C)Oc2ccc(C#N)cc2[C@@H](N2CCCC2=O)[C@@H]1O [CROMAKALIM] | 39 | 47 |  | Max fall in blood pressure [2]: 13
